Assay results taken from BindingDB's records for doi:10.1016/j.chembiol.2011.02.011 (University of Oklahoma, 2011).
Where a SMILES comes first, the peptide text is derived from it. [ ]: non-standard residue; d: D form. The star is where a group is joined. ξ: configuration not given here. ξR = N=C(N)NCCCC(N)C(=O)O; βNA = c1ccc2cc(N*)ccc2c1

Target: T1, Multidrug efflux pump subunit AcrB (Escherichia coli (strain B / BL21-DE3), UniProt P31224)
T1 sequence (P31224 whole entry): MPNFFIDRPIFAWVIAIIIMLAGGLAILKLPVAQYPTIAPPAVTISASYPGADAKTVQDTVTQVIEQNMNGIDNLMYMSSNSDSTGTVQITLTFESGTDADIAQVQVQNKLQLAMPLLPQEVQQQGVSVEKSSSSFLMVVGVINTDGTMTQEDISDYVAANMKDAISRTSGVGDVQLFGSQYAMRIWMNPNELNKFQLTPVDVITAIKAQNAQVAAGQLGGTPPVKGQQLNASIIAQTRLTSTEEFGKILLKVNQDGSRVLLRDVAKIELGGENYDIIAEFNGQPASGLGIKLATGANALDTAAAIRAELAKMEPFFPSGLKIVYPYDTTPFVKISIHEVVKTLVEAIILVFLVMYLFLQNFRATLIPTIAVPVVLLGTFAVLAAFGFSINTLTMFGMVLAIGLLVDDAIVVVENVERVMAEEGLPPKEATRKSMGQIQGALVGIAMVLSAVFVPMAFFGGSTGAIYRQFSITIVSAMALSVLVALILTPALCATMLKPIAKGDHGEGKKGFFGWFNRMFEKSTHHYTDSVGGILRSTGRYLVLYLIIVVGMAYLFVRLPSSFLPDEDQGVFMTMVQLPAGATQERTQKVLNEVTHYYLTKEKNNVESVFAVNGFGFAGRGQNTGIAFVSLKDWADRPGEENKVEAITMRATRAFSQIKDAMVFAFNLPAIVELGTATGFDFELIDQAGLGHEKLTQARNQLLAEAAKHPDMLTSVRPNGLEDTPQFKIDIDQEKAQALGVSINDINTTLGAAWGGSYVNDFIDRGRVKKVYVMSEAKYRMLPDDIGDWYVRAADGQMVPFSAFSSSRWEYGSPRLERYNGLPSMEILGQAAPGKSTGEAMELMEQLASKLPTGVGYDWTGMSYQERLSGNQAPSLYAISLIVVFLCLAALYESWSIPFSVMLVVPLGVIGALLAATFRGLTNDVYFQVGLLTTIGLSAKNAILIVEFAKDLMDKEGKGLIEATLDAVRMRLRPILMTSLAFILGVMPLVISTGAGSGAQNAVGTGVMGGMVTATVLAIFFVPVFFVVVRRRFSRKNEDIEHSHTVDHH
Test: Binding Assay
Text: Binding of inhibitors and substrates to immobilized AcrB.

| Kd (pH 6) [µM] | Structure (SMILES) | Kd (pH 7.5) [µM] |
| --- | --- | --- |
| – | CO[C@@H]1[C@@H](OC(N)=O)[C@@H](O)[C@H](Oc2ccc3c(O)c(NC(=O)c4ccc(O)c(CC=C(C)C)c4)c(=O)oc3c2C)OC1(C)C [Coumarin-Based, DNA Gyrase Inhibitor] | 530 |
| 110 | NC(N)=NCCCC(NC(=O)[C@@H](N)Cc1ccccc1)C(=O)Nc1ccc2ccccc2c1 (stereo partly drawn) [MC-207,110] (H-Phe-[ξR]-βNA) | 590 |
